Measured values: ChEMBL document CHEMBL5375999, “Discovery of a Dual Tubulin and Neuropilin-1 (NRP1) Inhibitor with Potent In Vivo Anti-Tumor Activity via Pharmacophore-based Docking Screening, Structure Optimization, and Biological Evaluation” (J Med Chem, 2023)
Active and inactive are the calls of the source. The calls are words filed in the database; no cut-off is given here.

How the values were obtained:
[1] = test system: PC-3; experiment: Induction of apoptosis in human PC-3 cells assessed as viable cells at 0.1 uM by Annexin-V FITC staining based flow cytometry analysis (reference value: 96.8%); format: functional; conditions: read-out: Activity
[2] = target: Vascular endothelial growth factor receptor 2 (Homo sapiens, UniProt P35968); experiment: Inhibition of VEGF-induced VEGFR2 signal pathway in HUVECs assessed as reduction in p-VEGFR2 level; format: cell-based; conditions: HUVEC, dose 0.1-12.5 µM
[3] = target: RAC-alpha serine/threonine-protein kinase (Homo sapiens, UniProt P31749); experiment: Inhibition of AKT1 (unknown origin)
RAC-alpha serine/threonine-protein kinase, sequence (P31749 whole entry): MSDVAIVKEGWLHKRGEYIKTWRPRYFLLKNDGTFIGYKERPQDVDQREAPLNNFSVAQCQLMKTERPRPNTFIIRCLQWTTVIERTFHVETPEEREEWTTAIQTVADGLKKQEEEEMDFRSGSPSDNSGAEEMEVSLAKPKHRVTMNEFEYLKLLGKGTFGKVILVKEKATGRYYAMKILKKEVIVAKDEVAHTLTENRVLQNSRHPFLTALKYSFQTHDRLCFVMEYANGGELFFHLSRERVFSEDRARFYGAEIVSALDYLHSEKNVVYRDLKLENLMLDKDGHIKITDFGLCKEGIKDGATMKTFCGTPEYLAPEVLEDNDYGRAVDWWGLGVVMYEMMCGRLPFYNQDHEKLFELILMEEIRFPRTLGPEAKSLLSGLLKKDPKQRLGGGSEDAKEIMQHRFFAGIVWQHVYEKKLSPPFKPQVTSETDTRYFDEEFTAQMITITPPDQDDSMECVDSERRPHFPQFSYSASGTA

[4] = target: Mitogen-activated protein kinase 3 (Homo sapiens, UniProt P27361); experiment: Inhibition of ERK1 (unknown origin)
Mitogen-activated protein kinase 3, sequence (P27361 whole entry): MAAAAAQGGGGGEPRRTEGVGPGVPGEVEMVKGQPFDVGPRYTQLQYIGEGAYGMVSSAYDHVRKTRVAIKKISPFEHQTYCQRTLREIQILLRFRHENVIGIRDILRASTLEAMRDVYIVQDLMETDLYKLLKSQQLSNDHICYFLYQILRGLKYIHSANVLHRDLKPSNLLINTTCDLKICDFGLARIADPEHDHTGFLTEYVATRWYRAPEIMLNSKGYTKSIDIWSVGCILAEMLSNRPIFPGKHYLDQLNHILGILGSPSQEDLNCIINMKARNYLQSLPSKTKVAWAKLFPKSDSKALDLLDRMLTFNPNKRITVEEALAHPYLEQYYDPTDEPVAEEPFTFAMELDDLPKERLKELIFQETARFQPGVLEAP

[5] = target: Serine/threonine-protein kinase PLK1 (Homo sapiens, UniProt P53350); experiment: Inhibition of PLK1 (unknown origin)
Serine/threonine-protein kinase PLK1, sequence (P53350 whole entry): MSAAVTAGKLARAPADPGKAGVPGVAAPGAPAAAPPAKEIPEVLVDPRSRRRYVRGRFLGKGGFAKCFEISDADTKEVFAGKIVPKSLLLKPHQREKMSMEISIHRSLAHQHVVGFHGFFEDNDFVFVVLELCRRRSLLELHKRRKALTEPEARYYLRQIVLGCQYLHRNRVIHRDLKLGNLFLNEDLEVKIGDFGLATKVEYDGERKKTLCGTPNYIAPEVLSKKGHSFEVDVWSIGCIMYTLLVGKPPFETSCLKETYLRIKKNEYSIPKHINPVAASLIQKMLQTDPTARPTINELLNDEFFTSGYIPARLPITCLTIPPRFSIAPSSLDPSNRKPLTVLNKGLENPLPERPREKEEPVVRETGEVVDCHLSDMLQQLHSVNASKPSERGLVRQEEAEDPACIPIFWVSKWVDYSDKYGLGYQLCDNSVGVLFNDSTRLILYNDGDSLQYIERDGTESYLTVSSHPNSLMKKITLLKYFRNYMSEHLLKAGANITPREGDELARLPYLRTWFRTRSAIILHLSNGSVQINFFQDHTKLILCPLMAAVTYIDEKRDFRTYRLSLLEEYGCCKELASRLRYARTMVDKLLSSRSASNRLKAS

[6] = Toxicity in BALB/c mouse xenografted with human PC-3 cells assessed as change in spleen morphology at 5 to 10 mg/kg, ip administered every 4 days for 20 days by H and E staining based inverted microscopic assay; format: organism-based; conditions: in vivo, 480 h, dose 5-10 mg/kg, time 20 day
[7] = test system: PC-3; experiment: Induction of apoptosis in human PC-3 cells assessed as necrotic cells at 2.5 uM by Annexin-V FITC staining based flow cytometry analysis (reference value: 0.059%); format: functional
[8] = target: Cyclin-dependent kinase 5 (Homo sapiens, UniProt Q00535); experiment: Inhibition of CDK5 (unknown origin)
Cyclin-dependent kinase 5, sequence (Q00535 whole entry): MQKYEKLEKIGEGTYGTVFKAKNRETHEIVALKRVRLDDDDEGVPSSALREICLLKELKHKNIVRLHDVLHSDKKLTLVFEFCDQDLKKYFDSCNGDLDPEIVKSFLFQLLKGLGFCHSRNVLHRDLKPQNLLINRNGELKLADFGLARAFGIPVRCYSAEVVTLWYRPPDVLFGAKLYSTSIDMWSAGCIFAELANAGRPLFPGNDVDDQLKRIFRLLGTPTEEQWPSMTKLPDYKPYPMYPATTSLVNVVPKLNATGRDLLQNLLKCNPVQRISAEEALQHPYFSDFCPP

[9] = target: Cyclin-dependent kinase 4 (Homo sapiens, UniProt P11802); experiment: Inhibition of CDK4 (unknown origin)
Cyclin-dependent kinase 4, sequence (P11802 whole entry): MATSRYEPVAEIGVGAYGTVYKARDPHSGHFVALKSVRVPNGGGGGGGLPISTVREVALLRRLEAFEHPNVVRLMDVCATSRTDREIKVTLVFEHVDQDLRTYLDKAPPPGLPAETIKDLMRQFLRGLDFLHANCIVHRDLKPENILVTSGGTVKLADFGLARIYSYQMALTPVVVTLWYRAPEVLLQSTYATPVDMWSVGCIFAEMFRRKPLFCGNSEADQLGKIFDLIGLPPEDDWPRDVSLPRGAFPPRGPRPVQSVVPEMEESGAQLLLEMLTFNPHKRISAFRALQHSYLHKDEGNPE

[10] = test system: PC-3; experiment: Antiangiogenesis activity in human PC-3 cells assessed as reduction in network formation by interconnected cells at 0.1 to 12.5 uM incubated for 8 to 15 hrs by matrigel based inverted microscopic analysis; format: functional, cell-based; conditions: dose 0.1-12.5 µM, time 8-15 hrs
[11] = Half life in Sprague-Dawley rat at 1.5 mg/kg, po measured upto 24 hrs by LC-MS/MS analysis; format: ADME, organism-based; conditions: in vivo
[12] = target: Serine/threonine-protein kinase 4 (Homo sapiens, UniProt Q13043); experiment: Inhibition of MST1 (unknown origin)
Serine/threonine-protein kinase 4, sequence (Q13043 whole entry): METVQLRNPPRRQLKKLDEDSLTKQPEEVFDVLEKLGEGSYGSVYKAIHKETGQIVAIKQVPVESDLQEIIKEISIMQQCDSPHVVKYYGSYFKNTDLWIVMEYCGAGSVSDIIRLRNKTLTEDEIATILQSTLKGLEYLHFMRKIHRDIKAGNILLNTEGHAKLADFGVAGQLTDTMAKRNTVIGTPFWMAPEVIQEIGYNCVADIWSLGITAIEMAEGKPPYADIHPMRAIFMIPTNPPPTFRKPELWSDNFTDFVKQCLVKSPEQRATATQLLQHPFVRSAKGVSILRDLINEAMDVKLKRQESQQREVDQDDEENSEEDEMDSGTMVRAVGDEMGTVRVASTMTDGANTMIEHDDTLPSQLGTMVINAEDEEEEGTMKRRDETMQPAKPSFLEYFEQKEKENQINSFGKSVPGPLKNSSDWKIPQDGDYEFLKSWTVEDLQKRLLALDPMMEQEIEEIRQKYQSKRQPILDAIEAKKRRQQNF

[13] = target: ALK tyrosine kinase receptor (Homo sapiens, UniProt Q9UM73); experiment: Inhibition of ALK (unknown origin)
[14] = test system: PC-3; experiment: Induction of apoptosis in human PC-3 cells assessed as viable cells at 12.5 uM by Annexin-V FITC staining based flow cytometry analysis (reference value: 96.8%); format: functional; conditions: read-out: Activity
[15] = test system: PC-3; experiment: Induction of cell cycle arrest in human PC-3 cells assessed as G0/G1 phase cells at 12.5 uM by flow cytometry analysis (reference value: 94.76%); format: functional
[16] = target: Vascular endothelial growth factor receptor 3 (Homo sapiens, UniProt P35916); experiment: Inhibition of VEGFR3 (unknown origin)
[17] = target: RAC-gamma serine/threonine-protein kinase (Homo sapiens, UniProt Q9Y243); experiment: Inhibition of AKT3 (unknown origin)
[18] = test system: PC-3; experiment: Antiproliferative activity against human PC-3 cells assessed as inhibition of cell growth at 0.1 to 12.5 uM incubated for 48 hrs by EdU incorporation based assay; format: functional; conditions: dose 0.1-12.5 µM
[19] = Toxicity in BALB/c mouse xenografted with human PC-3 cells assessed as change in heart morphology at 5 to 10 mg/kg, ip administered every 4 days for 20 days by H and E staining based inverted microscopic assay; format: organism-based; conditions: in vivo, 480 h, dose 5-10 mg/kg, time 20 day
[20] = target: Tubulin; experiment: Inhibition of tubulin polymerization (unknown origin) by spectrophotometric analysis; format: protein-complex assay, Homo sapiens
[21] = target: Serine/threonine-protein kinase B-raf (Homo sapiens, UniProt P15056); experiment: Inhibition of BRAF (unknown origin)
[22] = target: T1, Tubulin (Homo sapiens) (UniProt P68371+Q9H4B7+P0DPH7+P68366+Q13509+Q71U36+P04350+Q3ZCM7+P07437+P68363+Q9BQE3+Q6PEY2+Q13885+Q9BVA1+Q9BUF5); experiment: Inhibition of tubulin polymerization in human PC-3 cells assessed as increase in nuclear disruption incubated for 48 hrs by immunofluorescence assay; format: cell-based; conditions: dose 0.1-12.5 µM
[23] = target: Cyclin-dependent kinase 2 (Homo sapiens, UniProt P24941); experiment: Inhibition of CDK2 (unknown origin)
[24] = target: Cyclin-dependent kinase 3 (Homo sapiens, UniProt Q00526); experiment: Inhibition of CDK3 (unknown origin)
Cyclin-dependent kinase 3, sequence (Q00526 whole entry): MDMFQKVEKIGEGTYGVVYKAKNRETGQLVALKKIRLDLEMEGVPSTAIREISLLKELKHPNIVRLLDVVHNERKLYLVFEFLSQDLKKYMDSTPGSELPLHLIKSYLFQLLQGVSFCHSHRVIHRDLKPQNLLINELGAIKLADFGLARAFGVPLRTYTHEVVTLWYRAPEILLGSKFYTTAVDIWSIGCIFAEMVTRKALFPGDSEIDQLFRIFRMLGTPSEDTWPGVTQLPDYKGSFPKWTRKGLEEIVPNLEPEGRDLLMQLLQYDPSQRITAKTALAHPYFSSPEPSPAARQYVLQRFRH

[25] = target: Cyclin-dependent kinase 9 (Homo sapiens, UniProt P50750); experiment: Inhibition of CDK9 (unknown origin)
Cyclin-dependent kinase 9, sequence (P50750 whole entry): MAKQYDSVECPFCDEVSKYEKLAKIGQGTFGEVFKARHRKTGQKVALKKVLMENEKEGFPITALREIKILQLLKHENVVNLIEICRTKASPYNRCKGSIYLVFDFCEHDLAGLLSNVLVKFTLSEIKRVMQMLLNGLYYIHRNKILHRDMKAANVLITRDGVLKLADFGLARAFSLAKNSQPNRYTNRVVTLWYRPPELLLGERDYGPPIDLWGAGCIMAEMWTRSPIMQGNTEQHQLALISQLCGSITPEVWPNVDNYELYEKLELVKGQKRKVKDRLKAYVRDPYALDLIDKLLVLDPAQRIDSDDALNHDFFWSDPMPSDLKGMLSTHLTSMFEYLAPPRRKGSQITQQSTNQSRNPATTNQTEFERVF

[26] = target: Activin receptor type-1 (Homo sapiens, UniProt Q04771); experiment: Inhibition of ACVR1 (unknown origin)
Activin receptor type-1, sequence (Q04771 whole entry): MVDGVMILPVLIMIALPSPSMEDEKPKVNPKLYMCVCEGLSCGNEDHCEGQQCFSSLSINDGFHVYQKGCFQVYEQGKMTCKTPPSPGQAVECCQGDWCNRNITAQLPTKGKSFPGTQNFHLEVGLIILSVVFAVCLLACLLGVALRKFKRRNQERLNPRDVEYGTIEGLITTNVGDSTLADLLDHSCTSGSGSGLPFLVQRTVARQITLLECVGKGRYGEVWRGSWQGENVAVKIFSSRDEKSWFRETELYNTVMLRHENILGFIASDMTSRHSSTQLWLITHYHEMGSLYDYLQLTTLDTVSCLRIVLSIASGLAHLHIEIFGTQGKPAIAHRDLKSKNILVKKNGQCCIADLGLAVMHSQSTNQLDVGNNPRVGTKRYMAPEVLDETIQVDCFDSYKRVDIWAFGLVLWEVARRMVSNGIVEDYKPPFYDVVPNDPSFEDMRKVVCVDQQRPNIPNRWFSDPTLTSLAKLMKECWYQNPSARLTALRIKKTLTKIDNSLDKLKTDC

[27] = test system: PC-3; experiment: Induction of cell cycle arrest in human PC-3 cells assessed as S phase cells at 0.1 uM by flow cytometry analysis (reference value: 2%); format: functional
[28] = target: Phosphatidylinositol 4,5-bisphosphate 3-kinase catalytic subunit alpha isoform (Homo sapiens, UniProt P42336); experiment: Inhibition of PIK3CA (unknown origin)
Phosphatidylinositol 4,5-bisphosphate 3-kinase catalytic subunit alpha isoform, sequence (P42336 whole entry, canonical isoform): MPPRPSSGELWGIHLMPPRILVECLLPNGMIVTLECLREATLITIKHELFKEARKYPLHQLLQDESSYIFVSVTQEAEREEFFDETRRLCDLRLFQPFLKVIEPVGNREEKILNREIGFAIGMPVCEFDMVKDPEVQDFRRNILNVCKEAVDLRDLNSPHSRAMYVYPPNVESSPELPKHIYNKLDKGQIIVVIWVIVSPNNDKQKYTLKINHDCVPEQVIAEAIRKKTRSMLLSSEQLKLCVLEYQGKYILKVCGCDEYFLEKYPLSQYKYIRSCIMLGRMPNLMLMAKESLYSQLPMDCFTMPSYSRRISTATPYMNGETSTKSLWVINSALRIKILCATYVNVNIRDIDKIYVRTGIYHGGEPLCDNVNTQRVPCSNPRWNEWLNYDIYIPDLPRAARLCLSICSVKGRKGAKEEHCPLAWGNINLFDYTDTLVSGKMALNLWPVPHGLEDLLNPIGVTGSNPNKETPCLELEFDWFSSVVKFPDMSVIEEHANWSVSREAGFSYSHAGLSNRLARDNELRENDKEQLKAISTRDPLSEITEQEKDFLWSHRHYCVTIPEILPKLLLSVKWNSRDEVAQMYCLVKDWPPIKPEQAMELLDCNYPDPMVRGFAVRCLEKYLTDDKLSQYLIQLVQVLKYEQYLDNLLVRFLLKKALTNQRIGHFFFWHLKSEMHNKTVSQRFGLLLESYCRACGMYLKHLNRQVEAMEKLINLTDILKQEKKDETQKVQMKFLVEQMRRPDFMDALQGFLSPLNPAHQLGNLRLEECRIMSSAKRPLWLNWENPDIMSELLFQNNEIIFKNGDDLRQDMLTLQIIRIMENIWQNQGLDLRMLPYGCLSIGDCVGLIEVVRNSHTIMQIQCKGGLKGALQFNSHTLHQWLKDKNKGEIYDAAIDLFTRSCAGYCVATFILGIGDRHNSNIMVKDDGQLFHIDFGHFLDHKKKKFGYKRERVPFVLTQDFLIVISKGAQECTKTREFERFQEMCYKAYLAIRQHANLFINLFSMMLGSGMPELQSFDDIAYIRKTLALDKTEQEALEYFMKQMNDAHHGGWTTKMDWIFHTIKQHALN

[29] = test system: PC-3; experiment: Induction of cell cycle arrest in human PC-3 cells assessed as accumulation of cells at G2/M phase at 12.5 uM by flow cytometry analysis (reference value: 3.24%); format: functional
[30] = target: T1, Tubulin (Homo sapiens); experiment: Inhibition of tubulin polymerization (unknown origin) at 12 uM by spectrophotometric analysis relative to control; format: protein-complex assay
[31] = test system: HUVEC; experiment: Antimigratory activity against HUVECs at 0.1 to 12.5 uM incubated for 24 to 48 hrs by wound healing assay; format: functional, cell-based; conditions: Homo sapiens, dose 0.1-12.5 µM, time 24-48 hrs
[32] = test system: PC-3; experiment: Induction of apoptosis in human PC-3 cells assessed as late apoptotic cells at 0.1 uM by Annexin-V FITC staining based flow cytometry analysis (reference value: 1.67%); format: functional
[33] = target: Cytoplasmic tyrosine-protein kinase BMX (Homo sapiens, UniProt P51813); experiment: Inhibition of BMX (unknown origin)
[34] = target: Mitogen-activated protein kinase kinase kinase 20 (Homo sapiens, UniProt Q9NYL2); experiment: Inhibition of ZAK (unknown origin)
[35] = target: T1, Tubulin (Homo sapiens); experiment: Inhibition of tubulin polymerization in human PC-3 cells assessed as cell shrinkage at 0.1 to 12.5 uM incubated for 48 hrs by immunofluorescence assay; format: cell-based; conditions: dose 0.1-12.5 µM
[36] = target: Vascular endothelial growth factor receptor 1 (Homo sapiens, UniProt P17948); experiment: Inhibition of VEGFR1 (unknown origin)
[37] = target: Tyrosine-protein kinase Fgr (Homo sapiens, UniProt P09769); experiment: Inhibition of FGR (unknown origin)
[38] = target: RAC-beta serine/threonine-protein kinase (Homo sapiens, UniProt P31751); experiment: Inhibition of AKT2 (unknown origin)
[39] = test system: PC-3; experiment: Induction of apoptosis in human PC-3 cells assessed as early apoptotic cells at 2.5 uM by Annexin-V FITC staining based flow cytometry analysis (reference value: 1.51%); format: functional
[40] = test system: PC-3; experiment: Induction of cell cycle arrest in human PC-3 cells assessed as S phase cells at 2.5 uM by flow cytometry analysis (reference value: 2%); format: functional
[41] = test system: PC-3; experiment: Induction of cell cycle arrest in human PC-3 cells assessed as S phase cells at 12.5 uM by flow cytometry analysis (reference value: 2%); format: functional

## COc1ccc(/C=C\c2cc(OC)c(OC)c(OC)c2)cc1NC(=O)CCC(=O)N[C@@H](CCCNC(=N)N)C(=O)O
[1]
  viability at 0.1 µM: 93.6%
[2]
  inhibition: Dose-Dependent Effect
[3]
  IC50: > 10 µM
[4]
  IC50: > 10 µM
[5]
  IC50: > 10 µM
[6]
  Activity: Non-Toxic
[7]
  Activity: 0.16%
[8]
  IC50: > 10 µM
[9]
  IC50: > 10 µM
[10]
  Activity: Active
[11]
  half-life: 13.8 h
[12]
  IC50: > 10 µM
[13]
  IC50: > 10 µM
[14]
  viability at 12.5 µM: 89.4%
[15]
  Activity: 51.13%
[16]
  IC50: > 10 µM
[17]
  IC50: > 10 µM
[18]
  Activity: Active
[19]
  Activity: Non-Toxic
[20]
  IC50: 0.71 µM
[21]
  IC50: > 10 µM
[22]
  inhibition: Dose-Dependent Effect
[23]
  IC50: > 10 µM
[24]
  IC50: > 10 µM
[25]
  IC50: > 10 µM
[26]
  IC50: > 10 µM
[27]
  Activity: 1.95%
[28]
  IC50: > 10 µM
[29]
  Activity: 14.02%
[30]
  inhibition: 96%
[31]
  Activity: Active
[32]
  Activity: 4.49%
[33]
  IC50: > 10 µM
[34]
  IC50: > 10 µM
[35]
  inhibition: Active
[36]
  IC50: > 10 µM
[37]
  IC50: > 10 µM
[38]
  IC50: > 10 µM
[39]
  Activity: 3.63%
[40]
  Activity: 3.67%
[41]
  Activity: 34.85%
